In publication PMC7821381, “Multi-Targeted Anticancer Activity of Imidazolate Phosphane Gold(I) Compounds by Inhibition of DHFR and TrxR in Breast Cancer Cells” (Frontiers in Chemistry, 2021):

Key:
[1] = molecular target: T1, dihydrofolate reductase (DHFR) (Mus musculus, UniProt P00375); assay: DHFR specific enzymatic activity in lysates of treated A17 cells; format: cell-based, murine; conditions: 6 μM (maximum inhibition)
T1 construct: Cell lysates were collected using Cell Culture Lysis Reagent; endogenous in cells; host or cells: A17 (murine basal-like breast cancer cells)
T1 sequence (P00375 1-187): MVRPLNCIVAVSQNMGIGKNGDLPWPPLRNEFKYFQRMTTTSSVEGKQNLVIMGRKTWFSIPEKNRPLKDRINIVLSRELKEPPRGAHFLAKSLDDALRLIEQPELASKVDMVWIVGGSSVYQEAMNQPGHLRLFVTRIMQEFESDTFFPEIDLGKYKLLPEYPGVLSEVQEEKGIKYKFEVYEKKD
Description: (§1) SKBR3, MDA-MB-231 and A17 cells were plated onto 100 mm cell culture dishes (2 × 10^6 cells/ dish). The day after, cells were treated with vehicle alone (DMSO) as control or increasing concentrations of compound 5 and compound 6 in DMEM supplemented with 2% FBS (Invitrogen, Carlsbad, CA) for 4 h or 12 h. Representative pictures of cells treated with compound 5 or 6 at the indicated concentration for 4 or 12 h just before to take cell lysates for the enzymatic tests are reported as supplemental files. Cell lysates were collected using Cell Culture Lysis Reagent (Promega, Madison, WI) supplemented with BSA (1%) and protease inhibitors. DHFR activity was assessed by spectrophotometric assay as reported elsewhere (Wang et al., [2020]) in which the reaction rate was followed by recording the decreasing absorbance at 340 nm due to oxidation of NADPH to NADP^+, using a Shimadzu UV-2450 spectrophotometer. When necessary, because of low protein content in the lysates, the DHFR enzymatic activity was measured by a discontinuous direct HPLC assay using an Agilent 1100 system. HPLC-DAD (Agilent 1100) was used to detect and quantify the presence of NADP^+, as one of the products of DHFR catalyzed reaction, in cell lysates. Fifty microliter of the cell lysate were incubated at 37°C in a reaction mixture containing 760 μl of buffer (0.05 M Hepes pH 7.3), 20 μl of NADPH 4 mM, and 20 μl of dihydrofolate (H2F) 4 mM. The samples for HPLC analysis were prepared as follows: 50 μl aliquots of each mixture were stopped at different times (0, 5, 10, 20, 30, and 60 min) by adding 25 μl of HClO4 1.2 M; after 10 min on ice and centrifugation for 5 min at 12,000 g, 60 μl of each supernatant were neutralized by adding 17.5 μl of K2CO3 0.79 M, kept on ice and centrifuged again. Fifty microliter of the supernatant obtained were directly injected into the reversed phase column for separations of reagents and products of the enzyme catalyzed reaction. The column used is a Supelcosil LC RP 18 (4.6 × 250 mm) with pre-column SupelGuard. The HPLC settings are the same reported in Wang et al. ([2020]). The amounts of product (NADP^+) were determined from the peak areas of the HPLC-separated compounds with reference to appropriate standards. One enzyme unit is defined as the amount of enzyme which catalyzes the reduction of 1 μmol of dihydrofolate, per minute, at 37°C. Enzyme activities were normalized by the protein content, determined by the Bradford assay (Bradford, [1976]).

[2] = tested on: MDA-MB231 cells; assay: MTT cell viability assay on MDA-MB231 cells; format: cell-based, human; conditions: MDA-MB231, 48 h, ± S. D.
From the text: (§2) Human MDA-MB-231 (ER–/PR–/HER2–) and SK-BR-3 (ER–/PR–/HER2+) cells were obtained from American Type Culture Collection (Rockville, MD) and cultured in Dulbecco's Modified Essential Medium (DMEM, Gibco, Life Technologies) supplemented with 10% fetal bovine serum (FBS, Gibco, Life Technologies) and 1% penicillin–streptomycin (Gibco, Life Technologies). A17 cells were established from a spontaneous lobular carcinoma that arose in an FVB/neuT mouse (Galiè et al., [2005]), and maintained in DMEM plus 20% FBS and 1% penicillin-streptomycin. Cells were cultured at 37°C under humidified atmosphere with 5% CO2.
Stock solutions were prepared for each gold(I) compound (50 mM) using dimethyl sulfoxide (DMSO) (Sigma-Aldrich) as solvent. The effects of gold(I) compounds on SKBR3, A17 and MDA-MB231 cells viability were evaluated by seeding, respectively, 10, ^*10^3, 2.5 ^*10^3, 7, ^*10^3 cells/well in 96 wells plates in complete medium (DMEM supplemented with FBS) and compared to those of cisplatin. The day after, fresh medium containing vehicle alone (DMSO, 1 % v/v final concentration) or increasing concentrations of each compound ranging from 0.1 to 100 μM was added. Cell viability was determined using a MTT [3-(4,5-dimethylthiazol-2-yl)-2,5-diphenyl-2H-tetrazolium bromide Sigma Aldrich, St. Louis, MO] assay, which is based on the conversion of MTT to formazan crystals by mitochondrial enzymes, after 24, 48, and 72 h. The formazan deposits were dissolved in DMSO and the absorbance of each well was measured at 540 nm in Multiskan Ascent 96/384 Plate Reader. Each drug concentration was evaluated with 8 replicates and each experiment was repeated three times. At the end of the experiments a dose–response curve was plotted, and the IC50 concentrations were determined. […] Quantitative data are presented as means ± SEM. […]
(§3) IC50 values were calculated for each of the cell lines tested, by fitting the concentration-effect curves data obtained in the three experiments with the sigmoid-Emax model using nonlinear regression, weighted by the reciprocal of the square of the predicted effect.

[3] = tested on: SKBR3 cells; assay: MTT cell viability assay on SKBR3 cells; format: cell-based, human; conditions: for IC50: SKBR3, 48 h, ± S. D.; for cytotoxic activity in MTT screening: SKBR3 cells, 72 h (Figure 1S) and 48 h (Figure 2)
From the text: as §2
Stock solutions were prepared for each gold(I) compound (50 mM) using dimethyl sulfoxide (DMSO) (Sigma-Aldrich) as solvent. The effects of gold(I) compounds on SKBR3, A17 and MDA-MB231 cells viability were evaluated by seeding, respectively, 10, ^*10^3, 2.5 ^*10^3, 7, ^*10^3 cells/well in 96 wells plates in complete medium (DMEM supplemented with FBS) and compared to those of cisplatin. The day after, fresh medium containing vehicle alone (DMSO, 1 % v/v final concentration) or increasing concentrations of each compound ranging from 0.1 to 100 μM was added. Cell viability was determined using a MTT [3-(4,5-dimethylthiazol-2-yl)-2,5-diphenyl-2H-tetrazolium bromide Sigma Aldrich, St. Louis, MO] assay, which is based on the conversion of MTT to formazan crystals by mitochondrial enzymes, after 24, 48, and 72 h. The formazan deposits were dissolved in DMSO and the absorbance of each well was measured at 540 nm in Multiskan Ascent 96/384 Plate Reader. Each drug concentration was evaluated with 8 replicates and each experiment was repeated three times. At the end of the experiments a dose–response curve was plotted, and the IC50 concentrations were determined. Statistical analysis was performed using One-Way ANOVA analysis of variance followed by Dunnett's Multiple Comparison Test. Quantitative data are presented as means ± SEM. Differences were considered significant at ^*P ≤ 0.0332; ^**P ≤ 0.0021; ^***P ≤ 0.0002; ^****P ≤ 0.0001.
as §3

[4] = molecular target: T2, dihydrofolate reductase (DHFR) (Homo sapiens, UniProt P00374); assay: DHFR specific enzymatic activity in lysates of treated SKBR3 cells; format: cell-based; conditions: 6 μM (maximum inhibition)
T2 construct: Cell lysates were collected using Cell Culture Lysis Reagent; endogenous in cells; host or cells: MDA-MB231 and SKBR3 (human breast cancer cells)
T2 sequence (P00374 1-187): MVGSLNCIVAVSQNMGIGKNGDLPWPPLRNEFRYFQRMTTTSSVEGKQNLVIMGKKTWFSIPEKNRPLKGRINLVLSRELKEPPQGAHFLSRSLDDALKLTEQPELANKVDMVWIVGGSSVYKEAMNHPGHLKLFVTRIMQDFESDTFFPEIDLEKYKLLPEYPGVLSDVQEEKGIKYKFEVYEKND
Description: as §1

[5] = tested on: BLBC tumors; parameters: method as in Gambini et al., 2018; conditions: ref Gambini et al., 2018; cited from earlier work
[6] = A17, 4 h treatment, control 1.17 ± 0.06
[7] = A17, 12 h treatment, control 4.77 ± 0.78
[8] = SKBR3, 4 h treatment, control 0.72 ± 0.05
[9] = SKBR3, 12 h treatment, control 0.67 ± 0.10

Substance | Specific enzymatic activity of DHFR [1, 6] [mU/mg] | Specific enzymatic activity of DHFR [1, 7] [mU/mg] | IC50 [2] [µM] | IC50 [3] [µM] | cytotoxic activity in MTT screening [3] | Specific enzymatic activity of DHFR [4, 8] [mU/mg] | Specific enzymatic activity of DHFR [4, 9] [mU/mg] | activity against BLBC tumors transplanted in syngeneic mice compared with cisplatin [5]
4,5-dichloro-imidazolate-1yl-gold(I)-(triphenylphosphane) [Compound 6] | 1.03 ± 0.03 | 2.01 ± 0.14 | 3.46 ± 0.29 | 4.55 ± 0.25 | most active | 0.64 ± 0.06 | 0.34 ± 0.01 | much more active than cisplatin
4,5-dicyano-imidazolate-1yl-gold(I)-(triphenylphosphane) [Compound 5] | 1.07 ± 0.02 | 1.66 ± 0.07 | 7.03 ± 0.76 | 5.36 ± 0.35 | most active | 0.54 ± 0.04 | 0.29 ± 0.05 | much more active than cisplatin
